Laboratory results taken from the NIST ThermoML archive (doi:10.1016/j.jct.2013.08.021).
± gives the expanded uncertainty stated by the source.

Experiments:
[1] = refractive index (Na D-line) (dimensionless); xn = mol fraction of the nth substance listed; conditions: 101 kPa, Liquid, Standard Abbe refractometry
[2] = xn = mol fraction of the nth substance listed; conditions: 101 kPa, Liquid; for speed of sound: Sing-around technique in a fixed-path interferometer; for mass density: Vibrating tube method

CCC[N+]1(C)CCCC1.O=S(=O)([N-]S(=O)(=O)C(F)(F)F)C(F)(F)F + CCO
Conditions | mass density, 298.15 K [kg/m3] | mass density, 303.15 K [kg/m3] | mass density, 308.15 K [kg/m3] | refractive index, 298.15 K | refractive index, 303.15 K | refractive index, 308.15 K | speed of sound, 298.15 K [m/s] | speed of sound, 303.15 K [m/s] | speed of sound, 308.15 K [m/s]
[1], x2 = 0 | – | – | – | 1.42064 ± 0.00037 | 1.41926 ± 0.00037 | 1.41782 ± 0.00037 | – | – | –
[1], x2 = 0.016 | – | – | – | 1.42045 ± 0.00037 | 1.41907 ± 0.00037 | 1.41766 ± 0.00037 | – | – | –
[1], x2 = 0.0703 | – | – | – | 1.41973 ± 0.00036 | 1.41834 ± 0.00036 | 1.4169 ± 0.00036 | – | – | –
[1], x2 = 0.0986 | – | – | – | 1.41935 ± 0.00036 | 1.41789 ± 0.00036 | 1.41649 ± 0.00036 | – | – | –
[1], x2 = 0.2816 | – | – | – | 1.41621 ± 0.00034 | 1.41485 ± 0.00034 | 1.41339 ± 0.00034 | – | – | –
[1], x2 = 0.4082 | – | – | – | 1.41338 ± 0.00033 | 1.412 ± 0.00033 | 1.41052 ± 0.00033 | – | – | –
[1], x2 = 0.5143 | – | – | – | 1.41021 ± 0.00033 | 1.40877 ± 0.00033 | 1.40732 ± 0.00033 | – | – | –
[1], x2 = 0.6077 | – | – | – | 1.40661 ± 0.00032 | 1.40521 ± 0.00032 | 1.40398 ± 0.00032 | – | – | –
[1], x2 = 0.7059 | – | – | – | 1.40144 ± 0.00032 | 1.39995 ± 0.00032 | 1.39878 ± 0.00032 | – | – | –
[1], x2 = 0.8034 | – | – | – | 1.39395 ± 0.00032 | 1.39236 ± 0.00032 | 1.39104 ± 0.00032 | – | – | –
[1], x2 = 0.9002 | – | – | – | 1.38228 ± 0.00031 | 1.38064 ± 0.00031 | 1.37888 ± 0.00031 | – | – | –
[1], x2 = 0.9468 | – | – | – | 1.37383 ± 0.00031 | 1.372 ± 0.00031 | 1.37027 ± 0.00032 | – | – | –
[2], x2 = 0 | 1427.86 ± 0.6 | 1423.26 ± 0.6 | 1418.83 ± 0.59 | – | – | – | 1270.6 ± 1.5 | 1259.5 ± 1.5 | 1248.6 ± 1.5
[2], x2 = 0.016 | 1425.68 ± 0.59 | 1421.16 ± 0.58 | 1416.65 ± 0.58 | – | – | – | 1269.2 ± 1.5 | 1258.2 ± 1.5 | 1247.2 ± 1.5
[2], x2 = 0.0703 | 1418.06 ± 0.54 | 1413.56 ± 0.54 | 1409.05 ± 0.54 | – | – | – | 1266.3 ± 1.5 | 1255.2 ± 1.5 | 1244.3 ± 1.5
[2], x2 = 0.0986 | 1413.89 ± 0.52 | 1409.36 ± 0.52 | 1404.83 ± 0.51 | – | – | – | 1264.6 ± 1.5 | 1253 ± 1.5 | 1242.6 ± 1.5
[2], x2 = 0.2816 | 1380.66 ± 0.39 | 1376.07 ± 0.39 | 1371.48 ± 0.39 | – | – | – | 1252.4 ± 1.4 | 1241.1 ± 1.4 | 1229.9 ± 1.4
[2], x2 = 0.4082 | 1349.44 ± 0.32 | 1344.8 ± 0.31 | 1340.16 ± 0.31 | – | – | – | 1241 ± 1.3 | 1229.5 ± 1.3 | 1218.2 ± 1.3
[2], x2 = 0.5143 | 1315.09 ± 0.26 | 1310.32 ± 0.26 | 1305.65 ± 0.26 | – | – | – | 1228.8 ± 1.3 | 1217.2 ± 1.3 | 1205.7 ± 1.3
[2], x2 = 0.6077 | 1275.55 ± 0.23 | 1270.84 ± 0.23 | 1266.14 ± 0.23 | – | – | – | 1215.8 ± 1.2 | 1203.9 ± 1.2 | 1192.1 ± 1.2
[2], x2 = 0.7059 | 1219.23 ± 0.22 | 1214.5 ± 0.22 | 1209.77 ± 0.23 | – | – | – | 1198.4 ± 1.2 | 1186.2 ± 1.2 | 1174 ± 1.2
[2], x2 = 0.8034 | 1138.92 ± 0.25 | 1134.21 ± 0.25 | 1129.48 ± 0.26 | – | – | – | 1177.6 ± 1.2 | 1164.7 ± 1.2 | 1151.9 ± 1.2
[2], x2 = 0.9002 | 1015 ± 0.31 | 1010.37 ± 0.3 | 1005.72 ± 0.32 | – | – | – | 1155 ± 1.2 | 1140.9 ± 1.2 | 1127 ± 1.2
[2], x2 = 0.9468 | 927.02 ± 0.48 | 922.49 ± 0.48 | 917.93 ± 0.48 | – | – | – | 1146.8 ± 1.2 | 1131.8 ± 1.1 | 1117 ± 1.1

CCC[N+]1(C)CCCC1.O=S(=O)([N-]S(=O)(=O)C(F)(F)F)C(F)(F)F + CO
Conditions | mass density, 298.15 K [kg/m3] | mass density, 303.15 K [kg/m3] | mass density, 308.15 K [kg/m3] | refractive index, 298.15 K | refractive index, 303.15 K | refractive index, 308.15 K | speed of sound, 298.15 K [m/s] | speed of sound, 303.15 K [m/s] | speed of sound, 308.15 K [m/s]
[1], x2 = 0 | – | – | – | 1.42064 ± 0.00037 | 1.41926 ± 0.00037 | 1.41782 ± 0.00037 | – | – | –
[1], x2 = 0.0462 | – | – | – | 1.42002 ± 0.00036 | 1.41862 ± 0.00036 | 1.41719 ± 0.00036 | – | – | –
[1], x2 = 0.0901 | – | – | – | 1.41937 ± 0.00036 | 1.41801 ± 0.00036 | 1.41659 ± 0.00036 | – | – | –
[1], x2 = 0.1769 | – | – | – | 1.41794 ± 0.00035 | 1.41675 ± 0.00035 | 1.41551 ± 0.00035 | – | – | –
[1], x2 = 0.2722 | – | – | – | 1.41609 ± 0.00034 | 1.41503 ± 0.00034 | 1.4136 ± 0.00034 | – | – | –
[1], x2 = 0.3855 | – | – | – | 1.41327 ± 0.00034 | 1.41206 ± 0.00034 | 1.41063 ± 0.00034 | – | – | –
[1], x2 = 0.568 | – | – | – | 1.40659 ± 0.00033 | 1.4055 ± 0.00033 | 1.404 ± 0.00033 | – | – | –
[1], x2 = 0.685 | – | – | – | 1.39953 ± 0.00032 | 1.39832 ± 0.00032 | 1.39695 ± 0.00032 | – | – | –
[1], x2 = 0.798 | – | – | – | 1.38838 ± 0.00032 | 1.38703 ± 0.00032 | 1.38569 ± 0.00032 | – | – | –
[1], x2 = 0.8984 | – | – | – | 1.37031 ± 0.00032 | 1.36877 ± 0.00032 | 1.36712 ± 0.00032 | – | – | –
[1], x2 = 0.9467 | – | – | – | 1.35498 ± 0.00032 | 1.35335 ± 0.00032 | 1.35185 ± 0.00032 | – | – | –
[2], x2 = 0 | 1427.86 ± 0.6 | 1423.26 ± 0.6 | 1418.83 ± 0.59 | – | – | – | 1270.6 ± 1.5 | 1259.5 ± 1.5 | 1248.6 ± 1.5
[2], x2 = 0.0462 | 1423.37 ± 0.56 | 1418.86 ± 0.56 | 1414.35 ± 0.56 | – | – | – | 1268.8 ± 1.5 | 1257.7 ± 1.5 | 1246.8 ± 1.5
[2], x2 = 0.0901 | 1418.77 ± 0.53 | 1414.23 ± 0.53 | 1409.69 ± 0.52 | – | – | – | 1266.9 ± 1.5 | 1255.8 ± 1.5 | 1244.9 ± 1.5
[2], x2 = 0.1769 | 1408.88 ± 0.47 | 1404.34 ± 0.46 | 1399.8 ± 0.46 | – | – | – | 1262.7 ± 1.4 | 1251.6 ± 1.4 | 1240.6 ± 1.4
[2], x2 = 0.2722 | 1396.02 ± 0.41 | 1391.43 ± 0.4 | 1386.85 ± 0.4 | – | – | – | 1257.1 ± 1.4 | 1246 ± 1.4 | 1234.9 ± 1.4
[2], x2 = 0.3855 | 1376.42 ± 0.34 | 1371.67 ± 0.34 | 1367.04 ± 0.34 | – | – | – | 1248.7 ± 1.3 | 1237.4 ± 1.3 | 1226.2 ± 1.3
[2], x2 = 0.568 | 1329.02 ± 0.25 | 1324.31 ± 0.25 | 1319.61 ± 0.25 | – | – | – | 1228.6 ± 1.3 | 1217 ± 1.3 | 1205.7 ± 1.3
[2], x2 = 0.685 | 1279.72 ± 0.23 | 1274.95 ± 0.23 | 1270.18 ± 0.23 | – | – | – | 1208.5 ± 1.2 | 1196.8 ± 1.2 | 1185.2 ± 1.2
[2], x2 = 0.798 | 1201.72 ± 0.25 | 1196.89 ± 0.25 | 1192.05 ± 0.26 | – | – | – | 1180.4 ± 1.2 | 1168.2 ± 1.2 | 1156.1 ± 1.2
[2], x2 = 0.8984 | 1075.97 ± 0.33 | 1071.1 ± 0.32 | 1066.22 ± 0.33 | – | – | – | 1144.6 ± 1.2 | 1131.4 ± 1.2 | 1118.3 ± 1.2
[2], x2 = 0.9467 | 973.15 ± 0.59 | 968.3 ± 0.58 | 963.44 ± 0.59 | – | – | – | 1124.5 ± 1.2 | 1110.3 ± 1.1 | 1096.2 ± 1.1
